Laboratory results published in PubChem BioAssay (NCI).
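Five compound concentrations were applied to cells in 96-well plates for 48 hours; endpoints were derived by simple linear interpolation of the resulting dose-response curve. GI50 is the concentration that inhibits growth by half. TGI: total growth inhibition.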

Columns and labels:
Assay in all cases: growth of human tumour cells (NCI), 48 h
U251 CNS = test system: U251 CNS
HCC-2998 colon = test system: HCC-2998 colon
ACHN renal = test system: ACHN renal
HOP-92 NSCLC = test system: HOP-92 NSCLC
NCI-H460 lung = test system: NCI-H460 lung
K-562 leukemia = test system: K-562 leukemia
SK-MEL-2 melanoma = test system: SK-MEL-2 melanoma
HL-60(TB) leukemia = test system: HL-60(TB) leukemia
A549 NSCLC = test system: A549 NSCLC
MDA-MB-435 = test system: MDA-MB-435

Row | Structure (SMILES) | GI50 (U251 CNS) | TGI (U251 CNS) | GI50 (HCC-2998 colon) | TGI (HCC-2998 colon) | GI50 (ACHN renal) | TGI (ACHN renal) | GI50 (HOP-92 NSCLC) | TGI (HOP-92 NSCLC) | GI50 (NCI-H460 lung) | TGI (NCI-H460 lung) | GI50 (K-562 leukemia) | TGI (K-562 leukemia) | GI50 (SK-MEL-2 melanoma) | TGI (SK-MEL-2 melanoma) | GI50 (HL-60(TB) leukemia) | TGI (HL-60(TB) leukemia) | GI50 (A549 NSCLC) | TGI (A549 NSCLC) | GI50 (MDA-MB-435) | TGI (MDA-MB-435)
1 | CS(=O)(=O)c1nccc(-c2c(-c3cccc(OCc4ccccc4)c3)nc3sccn23)n1 | 19.6 µM | > 100 µM | 3.49 µM | 8.36 µM | 36.4 µM | > 100 µM | 6.38 µM | > 100 µM | > 83.5 µM | > 100 µM | 5.29 µM | > 100 µM | > 100 µM | > 100 µM | 3.97 µM | 27 µM | > 71.1 µM | > 100 µM | 13.3 µM | > 100 µM
2 | COc1ccc(C2CC(c3ccc4ccccc4c3)=NN2/C=C2\SC(=S)N(NC(=O)Cc3ccccc3Nc3c(Cl)cccc3Cl)C2=O)cc1 (stereo not drawn) | 0.402 µM | > 36.7 µM | 1.39 µM | > 33.3 µM | 0.684 µM | > 71.5 µM | 1.27 µM | > 53.4 µM | 0.388 µM | > 34 µM | 0.402 µM | > 100 µM | 2.95 µM | 18.8 µM | 0.404 µM | 2.89 µM | 0.507 µM | > 47.2 µM | 0.221 µM | 0.547 µM
3 | Cc1cc(C)nc(NS(=O)(=O)c2ccc(Nc3nc4nc(NCc5ccccc5)nc(-c5ccc(O)cc5)c4c(=O)[nH]3)cc2)n1 | 36.7 µM | > 100 µM | > 100 µM | > 100 µM | 29.6 µM | > 100 µM | 14.6 µM | 61.3 µM | 49.9 µM | > 100 µM | 4.84 µM | > 100 µM | 20.7 µM | > 100 µM | 8.41 µM | 36.2 µM | 18.9 µM | > 100 µM | 21.3 µM | > 100 µM
4 | COc1ccc(NC(=O)COc2ccccc2)c(C(N)=O)c1 | 0.742 µM | 20.1 µM | 3.2 µM | > 87.3 µM | 2.98 µM | > 100 µM | 2.87 µM | > 78 µM | 0.605 µM | > 56.7 µM | 0.348 µM | > 100 µM | 0.729 µM | > 83.2 µM | 0.368 µM | > 100 µM | 1.09 µM | > 100 µM | 0.156 µM | 0.845 µM
5 | COc1ccc2c(c1)O/C(=C\c1ccc([N+](=O)[O-])o1)C2=O | 1.98 µM | 6.56 µM | 1.81 µM | 3.64 µM | 0.625 µM | 2.69 µM | 1.95 µM | 5.62 µM | 0.598 µM | 3.89 µM | 0.352 µM | 1.91 µM | 2.13 µM | 4.01 µM | 1.8 µM | 5.69 µM | 2.43 µM | 8.04 µM | 1.61 µM | 3.49 µM
6 | NNC(=O)C(O)C(O)C(O)CO (stereo not drawn) |  | > 100 µM |  | > 100 µM |  | > 100 µM |  | > 100 µM |  | > 100 µM |  | > 100 µM |  | > 100 µM |  | > 100 µM |  | > 100 µM |  | > 100 µM
7 | C/C(=N\NC(=O)c1cccc(S(=O)(=O)N2CCN(C)CC2)c1)c1cc(Cl)ccc1O | 0.414 µM | > 100 µM | 0.571 µM | 28.7 µM | 0.46 µM | > 100 µM | 4.85 µM | > 90.1 µM | 0.395 µM | > 32 µM | 0.824 µM | > 52.8 µM | 3.46 µM | > 72.6 µM | 0.717 µM | 17.1 µM | 0.761 µM | > 100 µM | 2.74 µM | > 100 µM
8 | COc1ccc2nc(-c3ccc(Cl)cc3)cc(-c3nnc(SCC(=O)Nc4ccc(/C(C)=N\O)cc4)o3)c2c1 | 0.974 µM | 1.9 µM | 2.98 µM | 31.5 µM | 1.85 µM | 8.04 µM | 1.77 µM | 5.26 µM | 1.1 µM | 2.32 µM | 2.83 µM | > 50 µM | 2.46 µM | 9.77 µM | > 50 µM | > 50 µM | 1.23 µM | 3.21 µM | 1.26 µM | 4.08 µM
9 | CC/C=C\C[C@H](O)C/C=C1/C(=O)C=C[C@@H]1C/C=C\CCCC(=O)OCCS(=O)(=O)c1ccccc1 | 3.35 µM | 12.5 µM | 1.99 µM | 3.64 µM | 3.17 µM | 10.3 µM | 6.87 µM | 19.4 µM | 2.53 µM | 6.35 µM | 3.04 µM | 63.8 µM | 4.14 µM | 17.9 µM | 2.84 µM | 12.3 µM | 6.04 µM | 25.8 µM | 2.51 µM | 8.26 µM
10 | COc1ccccc1CN=C1NC(=O)/C(=C/c2ccc3ncccc3c2)S1 | 4.51 µM | > 16.1 µM | 17.5 µM | > 25 µM | 7.49 µM | > 25 µM | 6.24 µM | 22 µM | 6.91 µM | > 25 µM | 8.4 µM | > 25 µM | 10.4 µM | > 25 µM | 10.3 µM | > 25 µM | 6.93 µM | > 25 µM | 6.02 µM | > 21.3 µM
11 | CC(/C=C/C=C\C=C\C=C(/C)C(=O)NC(C)CO)=C\C(C)C(O)/C(C)=C/C(C)CCc1ccccc1 (stereo not drawn) |  | 37.9 µM |  | 26.7 µM |  | 21.9 µM |  | 13.5 µM |  | 26.5 µM |  | > 53.6 µM |  | 29.6 µM |  | > 100 µM |  | > 100 µM |  | 39.7 µM
12 | COc1ccc(/C=C(/C(=O)N2CCN(c3ccc(C)cc3)CC2)c2cc(OC)c(OC)c(OC)c2)cc1N | 0.397 µM | > 100 µM | 0.376 µM | > 100 µM | 0.203 µM | > 100 µM | 0.205 µM | > 100 µM | 0.347 µM | > 44 µM | 0.222 µM | > 100 µM | 0.64 µM | > 100 µM | 0.255 µM | 0.679 µM | 0.426 µM | > 100 µM | 0.108 µM | 
13 | Nc1c(C(=O)c2cccc(C(O)(CO)CO)c2)cnn1-c1ccc(F)cc1 | > 25 µM | > 25 µM | > 25 µM | > 25 µM | > 25 µM | > 25 µM | > 25 µM | > 25 µM | > 25 µM | > 25 µM | > 25 µM | > 25 µM | > 25 µM | > 25 µM | > 25 µM | > 25 µM | > 25 µM | > 25 µM | > 25 µM | > 25 µM
14 | C/C(=N\N)C(CN1CCCCC1)C(c1ccccc1)c1c(O)c2ccccc2oc1=O (stereo not drawn) |  | > 100 µM |  | > 100 µM |  | > 100 µM |  | > 100 µM |  | > 100 µM |  | > 100 µM |  | > 100 µM |  | > 100 µM |  | > 100 µM |  | > 100 µM
15 | COc1ccc(-c2cc(=O)c3c(OC)c(O)c(OC)cc3o2)cc1 |  | > 100 µM |  | > 100 µM |  | > 100 µM |  | 89.6 µM |  | > 100 µM |  | > 100 µM |  | > 100 µM |  | > 100 µM |  | > 100 µM |  | > 100 µM
16 | O=S1(=O)OCc2ccccc21 |  | > 100 µM |  | > 100 µM |  | > 100 µM |  | > 100 µM |  | > 100 µM |  | > 100 µM |  | > 100 µM |  | > 100 µM |  | > 100 µM |  | > 100 µM
17 | C=C(C)[C@@H]1CC[C@]2(C(=O)N3CCN(C)CC3)CC[C@]3(C)[C@H](CC[C@@H]4[C@@]5(C)C/C(=C/c6ccncc6)[C@H](O)C(C)(C)[C@@H]5CC[C@]43C)[C@@H]12 | 5.64 µM | 19.6 µM | 3.36 µM | 13.1 µM | 6.6 µM | > 100 µM | 2.88 µM | 19.2 µM | 3.95 µM | 17 µM | 2.79 µM |  | 8.41 µM | 26.2 µM | 2.29 µM | 5.58 µM | 5.2 µM | > 100 µM | 8.29 µM | 33.9 µM
